ChEMBL document CHEMBL2057062, “Synthesis and biological evaluation of 4-phenylquinazoline-2-carboxamides designed as a novel class of potent ligands of the translocator protein” (J Med Chem, 2012)
Calls of active or inactive are those of the source. No cut-off for these calls is given here.

Tests used:
[1] = target: Translocator protein (Rattus norvegicus) (UniProt P16257); assay: Displacement of [3H]PK11195 from TSPO in rat kidney mitochondrial membranes at 1 uM by competitive binding assay; type: cell membranes; details: Membrane
[2] = species: Rattus norvegicus; assay: Displacement of [3H]flumazenil from central benzodiazepine receptor in rat cerebral cortex membranes at 10 uM after 90 mins by competitive binding assay; type: cell membranes; details: Membrane
[3] = target: Translocator protein (Rattus norvegicus, UniProt P16257); assay: Displacement of [3H]PK11195 from TSPO in rat kidney mitochondrial membranes by competitive binding assay; type: cell membranes, Membrane
[4] = test system: C6; assay: Increase in pregnenolone production in rat C6 glioma cells at 40 uM after 2 hrs by ELISA; type: functional, cell-based
[5] = test system: U-87MG ATCC; assay: Antiproliferative activity against human U87MG cells assessed as cell viability at 100 uM after 24 hrs by MTS assay; type: functional, cell-based

SMILES | inhibition [1] | inhibition [2] | Ki [3] | Activity [4] | Activity [5]
O=C(c1nc(-c2ccc(Cl)cc2)c2cc(Cl)ccc2n1)N1CCCC1 | 64% | 0% | – | – | –
CC[C@H](C)N(C)C(=O)c1nc(-c2ccccc2Cl)c2ccccc2n1 | – | 0% | 2.2 nM | – | –
CC(C)N(C)C(=O)c1nc(-c2ccccc2Cl)c2cc(Cl)ccc2n1 | 0% | 0% | – | – | –
CCCCCN(CCCCC)C(=O)c1nc(-c2ccccc2)c2ccccc2n1 | – | 0% | – | – | –
CCCN(CCC)C(=O)c1nc(-c2ccccc2)c2ccccc2n1 | – | 0% | 36.8 nM | – | –
CC(C)CN(C)C(=O)c1nc(-c2ccccc2)c2cc(Cl)ccc2n1 | – | 0% | 842 nM | – | –
CCCN(CCC)C(=O)Cc1c(-c2ccc(Cl)cc2)nc2ccc(Cl)cn12 | – | 0% | – | – | –
CCCCN(C)C(=O)c1nc(-c2ccccc2)c2ccccc2n1 | – | 0% | 46 nM | Active | –
CC(C)CN(C)C(=O)c1nc(-c2ccc(Cl)cc2)c2ccccc2n1 | – | 0% | 20.7 nM | – | –
CCC(C)N(C)C(=O)c1nc(-c2ccccc2)c2cc(Cl)ccc2n1 (stereo unspecified) | 22% | 0% | – | – | –
O=C(c1nc(-c2ccccc2)c2ccccc2n1)N1CCCC1 | 36% | 0% | – | – | –
CCCCCCN(CCCCCC)C(=O)c1nc(-c2ccccc2)c2ccccc2n1 | – | 0% | 0.69 nM | inactive | Active
CCCCN(CCCC)C(=O)c1nc(-c2ccccc2)c2ccccc2n1 | – | 0% | 3.3 nM | Active | –
CCCCCCN(CCCCCC)C(=O)c1nc(-c2ccc(Cl)cc2)c2cc(Cl)ccc2n1 | – | 0% | 4.31 nM | – | –
O=C(c1nc(-c2ccccc2Cl)c2cc(Cl)ccc2n1)N1CCCCC1 | – | 0% | 273 nM | – | –
O=C(c1nc(-c2ccccc2Cl)c2ccccc2n1)N1CCCCCC1 | – | 0% | 8.77 nM | – | –
O=C(c1nc(-c2ccc(Cl)cc2)c2ccccc2n1)N1CCCCCC1 | – | 0% | 84.3 nM | – | –
O=C(c1nc(-c2ccccc2Cl)c2cc(Cl)ccc2n1)N1CCCC1 | 73% | 0% | – | – | –
CCCCCCN(CCCCCC)C(=O)c1nc(-c2ccccc2Cl)c2ccccc2n1 | – | 0% | 65.1 nM | – | –
CC(C)N(C)C(=O)c1nc(-c2ccccc2Cl)c2ccccc2n1 | – | 0% | 12.5 nM | – | –
CCC(C)N(C)C(=O)c1nc(-c2ccc(Cl)cc2)c2ccccc2n1 (stereo unspecified) | – | 0% | 2.67 nM | Active | –

SMILES | inhibition [1] | inhibition [2] | Ki [3] | Activity [4] | Activity [5]
O=C(c1nc(-c2ccc(Cl)cc2)c2ccccc2n1)N1CCCCC1 | – | 0% | 493 nM | – | –
O=C(c1nc(-c2ccccc2Cl)c2ccccc2n1)N1CCCCC1 | – | 0% | 46 nM | – | –
CC(C)CN(C)C(=O)c1nc(-c2ccccc2Cl)c2ccccc2n1 | – | 0% | 6.98 nM | – | –
CCC(C)NC(=O)c1nc(-c2ccccc2)c2ccccc2n1 (stereo unspecified) | 0% | 0% | – | – | –
O=C(c1nc(-c2ccc(Cl)cc2)c2cc(Cl)ccc2n1)N1CCCCC1 | 76% | 0% | – | – | –
CC(C)N(C)C(=O)c1nc(-c2ccc(Cl)cc2)c2cc(Cl)ccc2n1 | 39% | 0% | – | – | –
CC(C)CN(C)C(=O)c1nc(-c2ccccc2Cl)c2cc(Cl)ccc2n1 | 77% | 0% | – | – | –
CCC(C)N(C)C(=O)c1nc(-c2ccccc2Cl)c2cc(Cl)ccc2n1 (stereo unspecified) | 43% | 0% | – | – | –
CCC(C)NC(=O)c1nc(-c2ccccc2Cl)c2ccccc2n1 (stereo unspecified) | 63% | 0% | – | – | –
CCCCCCN(CCCCCC)C(=O)c1nc(-c2ccccc2Cl)c2cc(Cl)ccc2n1 | – | 0% | 30.4 nM | – | –
O=C(c1nc(-c2ccccc2Cl)c2ccccc2n1)N1CCCC1 | 70% | 0% | – | – | –
CN1C(=O)CN=C(c2ccc(Cl)cc2)c2cc(Cl)ccc21 | – | 0% | – | Active | –
CCCCCCN(CCCCCC)C(=O)c1nc(-c2ccc(Cl)cc2)c2ccccc2n1 | – | 0% | 3.42 nM | Active | –
CCCCCCN(CCCCCC)C(=O)c1nc(-c2ccccc2)c2cc(Cl)ccc2n1 | – | 0% | 38.5 nM | – | –
O=C(c1nc(-c2ccc(Cl)cc2)c2cc(Cl)ccc2n1)N1CCCCCC1 | 77% | 0% | – | – | –
CCC(C)N(C)C(=O)c1nc(-c2ccccc2)c2ccccc2n1 (stereo unspecified) | – | 0% | 3 nM | – | –
CC[C@H](C)N(C)C(=O)c1nc(-c2ccccc2)c2ccccc2n1 | – | 0% | 6.09 nM | – | –
CCC(C)N(C)C(=O)c1nc(-c2ccccc2Cl)c2ccccc2n1 (stereo unspecified) | – | 0% | 3.06 nM | Active | Active
CC[C@@H](C)N(C)C(=O)c1nc(-c2ccc(Cl)cc2)c2ccccc2n1 | – | 0% | 1.57 nM | – | –
CN1C(=O)CN=C(c2ccccc2F)c2cc([N+](=O)[O-])ccc21 | – | 0% | – | – | –
O=C(c1nc(-c2ccccc2)c2ccccc2n1)N1CCCCCC1 | 79% | 0% | – | – | –

SMILES | inhibition [1] | inhibition [2] | Ki [3] | Activity [4] | Activity [5]
CCC(C)N(C)C(=O)c1cc2ccccc2c(-c2ccccc2Cl)n1 (stereo unspecified) | – | 0% | – | Active | Active
CCC(C)NC(=O)c1nc(-c2ccccc2)c2cc(Cl)ccc2n1 (stereo unspecified) | 0% | 0% | – | – | –
O=C(c1nc(-c2ccccc2Cl)c2cc(Cl)ccc2n1)N1CCCCCC1 | – | 0% | 415 nM | – | –
CC(C)N(C)C(=O)c1nc(-c2ccccc2)c2cc(Cl)ccc2n1 | 0% | 0% | – | – | –
CC(C)N(C)C(=O)c1nc(-c2ccccc2)c2ccccc2n1 | – | 0% | 70.3 nM | – | –
O=C(c1nc(-c2ccccc2)c2ccccc2n1)N1CCCCC1 | 61% | 0% | – | – | –
O=C(c1nc(-c2ccc(Cl)cc2)c2ccccc2n1)N1CCCC1 | – | 0% | 644 nM | – | –
CCC(C)NC(=O)c1nc(-c2ccc(Cl)cc2)c2cc(Cl)ccc2n1 (stereo unspecified) | 49% | 0% | – | – | –
O=C(c1nc(-c2ccccc2)c2cc(Cl)ccc2n1)N1CCCCC1 | 46% | 0% | – | – | –
CC(C)CN(C)C(=O)c1nc(-c2ccccc2)c2ccccc2n1 | – | 0% | 66.5 nM | – | –
CCC(C)NC(=O)c1nc(-c2ccccc2Cl)c2cc(Cl)ccc2n1 (stereo unspecified) | 0% | 0% | – | – | –
CCOC(=O)c1ncn2c1CN(C)C(=O)c1cc(F)ccc1-2 | – | 0% | – | – | –
CC[C@@H](C)N(C)C(=O)c1nc(-c2ccccc2Cl)c2ccccc2n1 | – | 0% | 1.55 nM | – | –
CC(C)N(C)C(=O)c1nc(-c2ccc(Cl)cc2)c2ccccc2n1 | – | 0% | 50.4 nM | – | –
O=C(c1nc(-c2ccccc2)c2cc(Cl)ccc2n1)N1CCCC1 | 43% | 0% | – | – | –
CC[C@H](C)N(C)C(=O)c1nc(-c2ccc(Cl)cc2)c2ccccc2n1 | – | 0% | 2.51 nM | – | –
CCC(C)NC(=O)c1nc(-c2ccc(Cl)cc2)c2ccccc2n1 (stereo unspecified) | 37% | 0% | – | – | –
CC(C)CN(C)C(=O)c1nc(-c2ccc(Cl)cc2)c2cc(Cl)ccc2n1 | – | 0% | 60.7 nM | – | –
CCC(C)N(C)C(=O)c1nc(-c2ccc(Cl)cc2)c2cc(Cl)ccc2n1 (stereo unspecified) | – | 0% | 179 nM | – | –
O=C(c1nc(-c2ccccc2)c2cc(Cl)ccc2n1)N1CCCCCC1 | 38% | 0% | – | – | –
CC[C@@H](C)N(C)C(=O)c1nc(-c2ccccc2)c2ccccc2n1 | – | 0% | 6.41 nM | – | –
